Patent US7001897B2, “1-methylcarbapenem derivatives” (Sankyo Company, Limited, priority 2000, dated 2006)
Values after ≈ are worked out from the molar mass of the structure shown.

How the values were obtained:
[1] = Pharmacokinetics, plasma concentration by bioassay after subcutaneous injection; format: in vivo; settings: mouse, sc, mice (ddY, male), 20 mg/kg subcutaneous; for AUC: read-out: AUCall (area under the concentration-time curve in plasma); for Cmax: read-out: Cmax (maximal plasma concentration); for half-life: read-out: T1/2 (half-life in plasma concentration) (converted)
Protocol: The compounds of the present invention compound (20 mg/kg) was subcutaneously injected to mice (n=3, ddY, male, purchased from SLC Japan). The plasma concentration of the compound was determined by a bioassay method at 5, 15, and 30 min, and 1, 1.5, and 2 hr after administration. In the Table, Cmax, T1/2, and AUCall indicate the maximal plasma concentration, half-life in plasma concentration, and area under the concentration-time curve in plasma of the compound, respectively.

[2] = system: Haemophilis influenzae strain 9787 (a strain producing β-lactamase); assay: In vitro antibacterial activity, agar plate dilution method; format: cell-based; settings: C: Haemophilis influenzae strain 9787 (β-lactamase producing); agar plate dilution; read-out: Minimum Concentration to Inhibit Growth of the Employed Bacteria C
Protocol: (§1) To assess the antibacterial activities of the compounds, the minimum concentrations (μg/ml) of the compounds to inhibit growth of various pathogenic bacteria were determined by agar plate dilution method. In this Table, the employed bacteria A, B, and C were as follow: • A: Staphylococcus aureus • B: Streptococcus pneumoniae • C: Haemophilis influenzae strain 9787 (a strain producing β-lactamase)

Streptococcus pneumoniae = assay: as above; format: cell-based; settings: B: Streptococcus pneumoniae; agar plate dilution; read-out: Minimum Concentration to Inhibit Growth of the Employed Bacteria B
Protocol: as §1

Staphylococcus aureus = assay: as above; format: cell-based; settings: A: Staphylococcus aureus; agar plate dilution; read-out: Minimum Concentration to Inhibit Growth of the Employed Bacteria A
Protocol: as §1

[3] = system: S. pneumoniae 9605 (PRSP); assay: In vivo antibacterial activity, intraperitoneal infection of mice; settings: Streptococcus pneumoniae, 168 h; male ddY mice, i.p. S. pneumoniae 9605 (PRSP), single subcutaneous treatment, Probit method from survival rates 7 days after infection
Protocol: Male ddY mice of 4 weeks old (purchased from SLC Japan) were intraperitoneally inoculated with S. pneumoniae 9605 (PRSP) at a volume of 0.2 ml (containing 5% mucin, 1-5×10^3 colony forming unit (cfu)/mouse). Immediately after the mice were infected, they were subcutaneously treated with the test compound singly at a volume of 0.1 ml. Seven mice were used per group. A solution of the test compound prepared by 2-step dilution was used for the experiment. ED50 values of the compounds were calculated by the Probit method from survival rates 7 days after infection.

Compound | AUC [1] | Cmax [1] | half-life [1] | MIC [2] | MIC (Streptococcus pneumoniae) | MIC (Staphylococcus aureus) | ED50 [3]
C[C@@H](O)[C@H]1C(=O)N2C(C(=O)O)=C(SC3CN(c4nc(C(=O)N[C@H]5CCNC5)cs4)C3)[C@H](C)[C@H]12 [Example 57, (1R,5S,6S)-2-{1-[4-((3S)-pyrrolidin-3-ylcarbamoyl)-1,3-thiazol-2-yl]azetidin-3-yl}thio-6-[(R)-1-hydroxyethyl]-1-methylcarbapen-2-em-3-carboxylic acid] | 45300 ng·h/mL | 48200 ng/mL | 22.8 min | 0.2 µg/mL (≈ 0.405 µM) | 0.2 µg/mL (≈ 0.405 µM) | 0.025 µg/mL (≈ 0.0506 µM) | 0.855 mg/kg
C[C@@H](O)[C@H]1C(=O)N2C(C(=O)O)=C(SC3CN(c4nc(C(=O)N[C@@H]5CCNC5)cs4)C3)[C@H](C)[C@H]12 [Example 58, (1R,5S,6S)-2-{1-[4-((3R)-pyrrolidin-3-ylcarbamoyl)-1,3-thiazol-2-yl]azetidin-3-yl}thio-6-[(R)-1-hydroxyethyl]-1-methylcarbapen-2-em-3-carboxylic acid] | 47400 ng·h/mL | 63900 ng/mL | 24.6 min | 0.2 µg/mL (≈ 0.405 µM) | 0.2 µg/mL (≈ 0.405 µM) | ≤ 0.012 µg/mL | 0.899 mg/kg
C[C@@H](O)[C@H]1C(=O)N2C(C(=O)O)=C(SC3CN(c4nc(C(=O)N5CCNCC5)cs4)C3)[C@H](C)[C@H]12 [Example 60, (1R,5S,6S)-2-{1-[4-(piperazine-1-carbonyl)-1,3-thiazol-2-yl]azetidin-3-yl}thio-6-[(R)-1-hydroxyethyl]-1-methylcarbapen-2-em-3-carboxylic acid] | 27900 ng·h/mL | 46100 ng/mL | 18 min | 0.39 µg/mL (≈ 0.79 µM) | 0.39 µg/mL (≈ 0.79 µM) | 0.025 µg/mL (≈ 0.0506 µM) | 1.41 mg/kg
C[C@@H](O)[C@H]1C(=O)N2C(C(=O)O)=C(SC3CN(c4nc(CN)cs4)C3)[C@H](C)[C@H]12 [Example 67, (1R,5S,6S)-2-[1-(4-aminomethyl-1,3-thiazol-2-yl)azetidin-3-yl]thio-6-[(R)-1-hydroxyethyl]-1-methylcarbapen-2-em-3-carboxylic acid] | 34100 ng·h/mL | 40200 ng/mL | 27 min | 0.2 µg/mL (≈ 0.487 µM) | 0.39 µg/mL (≈ 0.95 µM) | ≤ 0.012 µg/mL | 1.6 mg/kg
C[C@@H](O)[C@H]1C(=O)N2C(C(=O)[O-])=C(SC3CN(c4nc(C(=O)N5CCOCC5)co4)C3)[C@H](C)[C@H]12.[Na+] [Example 76, (1R,5S,6S)-2-[1-(4-morpholinocarbonyl-1,3-oxazol-2-yl)azetidin-3-yl]thio-6-[(R)-1-hydroxyethyl]-1-methylcarbapen-2-em-3-carboxylic acid sodium salt] | 27900 ng·h/mL | 52800 ng/mL | 11.4 min | 0.39 µg/mL | 0.2 µg/mL | 0.05 µg/mL | 0.534 mg/kg
